Patent US20090306093A1, “METHOD FOR TREATING PATIENT HAVING BENIGN PROSTATE HYPERPLASIA” (KAOHSIUNG MEDICAL UNIVERSITY, priority 2008, published 2009)

What was measured:
sGCa1 = experiment: Western blot of sGCa1 expression in rat prostate
Method: Prostate strips were incubated with KMUP-1 (10-100 μM), sildenafil (100 μM) and zaprinast (100 μM) in 10 mL Tyrode solution aerated with 95% O2 and 5% CO2 for 1 hour. To examine the possible mechanisms of KMUP-1 action, the rat prostate were pretreated with ODQ (10 μM), SQ22536 (10 μM) and RP-8pCPT-cGMPs (10 μM) for 30 minutes prior to the addition of KMUP-1 (100 μM).
In order to examine the expression of Rho kinase in prostate, the prostate strips were pre-incubated with phenylephrine (10 μM) for 30 minutes. After a pre-treatment of phenylephrine, KMUP-1 (10-100 μM) and Y-27632 (10 μM) were further incubated for 30 minutes. After the incubation time, the prostate were extracted with protein extraction reagent (Pierce Biotechnology, Inc., Rockford, Ill., USA.). The PZ-HPV-7 cells were incubated with and without KMUP-1 (0.1-10 μM) at 30 minutes, 8 and 24 hours. They were then washed rapidly with ice-cold PBS, incubated with protein extraction reagent, and scraped from the plates. The prostate tissues and cells were sonicated three times for 10 second each time and centrifuged at 13,000 rpm at 4° C. for 30 minutes. The protein concentrations of supernatants were determined, using bovine serum albumin as the standard. Tissue and cell extract protein were then boiled at a ratio of 4:1 with sample buffer (100 mM Tris, pH 6.8, 20% glycerol, 4% SDS, and 0.2% bromphenol blue). 40-60 μg protein was used in this experiment. Electrophoresis was performed using 10 or 12% SDS-polyacrylamide gel electrophoresis and then transferred to nitrocellulose membranes (Millipore Corporation, Billerica, Mass.). The membrane was blocked with Tris-buffered saline (20 mM Tris and 137 mM NaCl, pH 7.6) containing 0.1% Tween 20 (TTBS) and 5% non-fat milk at room temperature for 1 hour, washed with TTBS, and then incubated overnight at 4° C. in the appropriate primary antibody of PKG (Santa Cruz, 1:200), sGCa1 (Santa Cruz, 1:200), PKA (Abcam, 1:1000), ROCK2 (Upstate, 1:1000), and PDE5A (BD Biosciences, 1:1000), p21 (Upstate, 1:1000). The membranes were washed in TTBS before being incubated with horseradish peroxidase-conjugated antibody against mouse, goat, or rabbit IgG (Santa Cruz, 1:1000) for 1 hour. The membrane was then washed in TTBS and developed with the enhanced chemiluminescence (ECL) for the detection of the specific antigen. The intensity of the bands was measured by densitometry.

ROCK2 = experiment: Quantitative RT-PCR of Rho kinase (ROCK2) mRNA in PZ-HPV-7 cells; assay type: cell-based, human
Method: […] After the incubation, total RNA is isolated by processing the PZ-HPV-7 cells with TRI REAGEANT (Molecular Research Center, INC., Cincinnati, Ohio, USA) and 1-bromo-3chloropropane (BCP). Isopropanol was used to precipitate the isolated RNA; ethanol (75%) was used to wash the unwanted solution. The samples were then air-dried for 15 minutes at the room temperature. The pellet was re-suspended in 20 μL of DEPC-water (Ambion). After the RNA isolation, total RNA (2 μg) was used for the reverse transcription to cDNA by High-Capacity cDNA Reverse Transcription Kits (Applied Biosystems).
Quantitation of Rho kinase and an internal reference gene (GAPDH) were done by fluorescence-based real-time detection (ABI PRISM 7900HT Sequence Detection System (Taqman); Applied Biosystems, Foster City, Calif.). The PCR reaction mixture consisted of 1× TaqMan Master Mix, 1× Probe/primers Assay Mix, 100 ng cDNA, and water containing a reference dye, to a final volume of 20 μL (all reagents from Applied Biosystems). Cycling conditions were 50° C. for 2 minutes, 95° C. for 10 minutes, followed by 40 cycles at 95° C. for 15 second and 60° C. for 1 minute. Gene expression values (relative mRNA levels) are expressed as ratios (differences between the Ct values) between the genes of interest and an internal reference gene (GAPDH) providing a normalization factor for the amount of RNA isolated from cells. This analysis was performed by 7900 HT SDS 2.2.1 software.

With `Cn1c(=O)c2c(ncn2CCN2CCN(c3ccccc3Cl)CC2)n(C)c1=O` [KMUP-1, 7-[2-[4-(2-Chlorobenzene)piperazinyl]ethyl]-1,3-dimethyl xanthine] the “expression of sGCa1” value (sGCa1; KMUP-1 100 μM after pretreatment of ODQ 10 μM for 30 minutes) was “significantly reduce”, the “expression of sGCa1” value (sGCa1; KMUP-1 10-100 μM, sildenafil, zaprinast 100 μM, 1 hour) was “most potently induces” and the “Rho kinase gene expression” value (ROCK2; 1 μM, 24 hours) was 96.00±10.00 % of control. For the same molecule, the “Rho kinase gene expression” value (ROCK2; 1 μM, 48 hours) was 90.00±10.05 % of control, the “Rho kinase gene expression” value (ROCK2; 10 μM, 24 hours) was 80.00±8.80 % of control and the “Rho kinase gene expression” value (ROCK2; 10 μM, 48 hours) was 66.00±5.80 % of control. The “Rho kinase gene expression” value (ROCK2; 100 μM, 24 hours) was 68.00±5.01 % of control and the “Rho kinase gene expression” value (ROCK2; 100 μM, 48 hours) was 52.00±7.01 % of control.
